Test results taken from patent publication US7517874B2 (priority 2007, dated 2009).

How the values were obtained:
[1] = target: human CB1 receptor (hCB1) (Homo sapiens, UniProt P21554); assay: cell-based; format: cell-based; conditions: for +/− HCB1: agonist or inverse agonist at hCB1
Procedure, shortened: (§1)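 First, cells in IBMX-containing HEPES-buffered HBSS are raised to elevated cAMP with 2-8 μM NKH-477 for 30 min. Data are normalised to the forskolin and forskolin + 1 μM CP55,940 controls.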

rat CB2 receptor (rCB2) = target: T1, rat CB2 receptor (rCB2) (Rattus norvegicus, UniProt Q9QZN9); assay: cell-based; format: cell-based; conditions: for +/− RCB2: agonist or inverse agonist at rCB2
T1 sequence (Q9QZN9 1-360): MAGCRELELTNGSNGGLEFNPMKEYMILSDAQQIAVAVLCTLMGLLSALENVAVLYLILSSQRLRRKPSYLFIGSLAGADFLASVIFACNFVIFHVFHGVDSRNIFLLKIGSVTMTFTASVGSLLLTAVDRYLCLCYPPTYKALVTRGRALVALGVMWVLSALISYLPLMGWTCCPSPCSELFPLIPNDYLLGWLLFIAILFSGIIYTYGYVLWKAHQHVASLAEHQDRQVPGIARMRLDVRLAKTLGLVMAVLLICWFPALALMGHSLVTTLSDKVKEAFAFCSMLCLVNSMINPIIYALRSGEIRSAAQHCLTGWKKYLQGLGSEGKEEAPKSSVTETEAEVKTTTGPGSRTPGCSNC
Procedure, shortened: as §1

Chain of human CB1 receptor (hCB1) (P21554 whole entry): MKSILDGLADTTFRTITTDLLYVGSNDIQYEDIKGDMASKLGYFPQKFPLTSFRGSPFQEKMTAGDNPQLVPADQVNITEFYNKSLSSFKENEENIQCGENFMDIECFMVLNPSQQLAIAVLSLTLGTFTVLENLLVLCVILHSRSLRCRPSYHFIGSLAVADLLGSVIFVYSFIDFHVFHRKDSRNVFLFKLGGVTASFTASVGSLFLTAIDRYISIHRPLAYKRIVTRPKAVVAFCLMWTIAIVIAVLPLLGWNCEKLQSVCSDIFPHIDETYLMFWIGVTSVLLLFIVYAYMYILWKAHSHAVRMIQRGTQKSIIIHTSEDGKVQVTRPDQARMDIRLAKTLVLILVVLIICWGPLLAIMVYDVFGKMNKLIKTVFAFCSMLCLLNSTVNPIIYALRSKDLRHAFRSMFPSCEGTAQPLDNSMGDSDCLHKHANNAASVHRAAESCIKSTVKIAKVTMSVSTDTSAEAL

| Structure (SMILES) | EC50 [1] [µM] | +/− RCB2 (rat CB2 receptor (rCB2)) | +/− HCB1 [1] | EC50 (rat CB2 receptor (rCB2)) [µM] |
| --- | --- | --- | --- | --- |
| CNC(=O)[C@@H](NC(=O)c1nc(-c2ccoc2)n2c1CN(C)CCC2)C(C)(C)C [Compound 440, (S)-N-(3,3-dimethyl-1-(methylamino)-1-oxobutan-2-yl)-3-(furan-3-yl)-8-methyl-6,7,8,9-tetrahydro-5H-imidazo[1,5-a][1,4]diazepine-1-carboxamide] | > 10 | + |  |  |
| C=C(C)c1nc(C(=O)N[C@H](C(=O)NC)C(C)(C)C)c2n1CCCN(C)C2 [Compound 441, (S)-N-(3,3-dimethyl-1-(methylamino)-1-oxobutan-2-yl)-8-methyl-3-(prop-1-en-2-yl)-6,7,8,9-tetrahydro-5H-imidazo[1,5-a][1,4]diazepine-1-carboxamide] |  | + | + |  |
| CNC(=O)[C@@H](NC(=O)c1nc(-c2c(C)noc2C)n2c1CN(C)CCC2)C(C)(C)C [Compound 442, N-((S)-3,3-dimethyl-1-(methylamino)-1-oxobutan-2-yl)-3-(3,5-dimethylisoxazol-4-yl)-8-methyl-6,7,8,9-tetrahydro-5H-imidazo[1,5-a][1,4]diazepine-1-carboxamide] |  | + | + |  |
| CNC(=O)[C@@H](NC(=O)c1nc(-c2ccc(C)o2)n2c1CN(C)CCC2)C(C)(C)C [Compound 443, (S)-N-(3,3-dimethyl-1-(methylamino)-1-oxobutan-2-yl)-8-methyl-3-(5-methylfuran-2-yl)-6,7,8,9-tetrahydro-5H-imidazo[1,5-a][1,4]diazepine-1-carboxamide] | > 10 | − |  |  |
| CNC(=O)[C@@H](NC(=O)c1nc(-c2cccc3cccnc23)n2c1CN(C)CCC2)C(C)(C)C [Compound 444] | > 10 | − |  |  |
| CNC(=O)[C@@H](NC(=O)c1nc(/C=C/CC2CCCC2)n2c1CN(C)CCC2)C(C)(C)C [Compound 445, (S,E)-3-(3-cyclopentylprop-1-enyl)-N-(3,3-dimethyl-1-(methylamino)-1-oxobutan-2-yl)-8-methyl-6,7,8,9-tetrahydro-5H-imidazo[1,5-a][1,4]diazepine-1-carboxamide] | > 10 | − |  |  |
| CNC(=O)[C@@H](NC(=O)c1nc(/C=C/c2ccsc2)n2c1CN(C)CCC2)C(C)(C)C [Compound 446] | > 10 | + |  |  |
| CNC(=O)[C@@H](NC(=O)c1nc(-c2cnn(C)c2)n2c1CN(C)CCC2)C(C)(C)C [Compound 447, (S)-N-(3,3-dimethyl-1-(methylamino)-1-oxobutan-2-yl)-8-methyl-3-(1-methyl-1H-pyrazol-4-yl)-6,7,8,9-tetrahydro-5H-imidazo[1,5-a][1,4]diazepine-1-carboxamide] |  | + | + |  |
| CNC(=O)[C@@H](NC(=O)c1nc(C2=CCC3(CC2)OCCO3)n2c1CN(C)CCC2)C(C)(C)C [Compound 448, (S)-N-(3,3-dimethyl-1-(methylamino)-1-oxobutan-2-yl)-8-methyl-3-(1,4-dioxaspiro[4.5]dec-7-en-8-yl)-6,7,8,9-tetrahydro-5H-imidazo[1,5-a][1,4]diazepine-1-carboxamide] |  | + | + |  |
| CNC(=O)[C@@H](NC(=O)c1nc(C2=CCC(C)CC2)n2c1CN(C)CCC2)C(C)(C)C (stereo partly drawn) [Compound 449, N-((S)-3,3-dimethyl-1-(methylamino)-1-oxobutan-2-yl)-8-methyl-3-(4-methylcyclohex-1-enyl)-6,7,8,9-tetrahydro-5H-imidazo[1,5-a][1,4]diazepine-1-carboxamide] |  | + | + |  |
| CNC(=O)[C@@H](NC(=O)c1nc(-c2ccncc2F)n2c1CN(C)CCC2)C(C)(C)C [Compound 451, (S)-N-(3,3-dimethyl-1-(methylamino)-1-oxobutan-2-yl)-3-(3-fluoropyridin-4-yl)-8-methyl-6,7,8,9-tetrahydro-5H-imidazo[1,5-a][1,4]diazepine-1-carboxamide] |  | + | + |  |
| C=C(c1nc(C(=O)N[C@H](C(=O)NC)C(C)(C)C)c2n1CCCN(C)C2)C(F)(F)F [Compound 453, (S)-N-(3,3-dimethyl-1-(methylamino)-1-oxobutan-2-yl)-8-methyl-3-(3,3,3-trifluoroprop-1-en-2-yl)-6,7,8,9-tetrahydro-5H-imidazo[1,5-a][1,4]diazepine-1-carboxamide] | > 10 | + |  |  |
| CNC(=O)[C@@H](NC(=O)c1nc(C(C)=C(C)C)n2c1CN(C)CCC2)C(C)(C)C [Compound 454, (S)-N-(3,3-dimethyl-1-(methylamino)-1-oxobutan-2-yl)-8-methyl-3-(3-methylbut-2-en-2-yl)-6,7,8,9-tetrahydro-5H-imidazo[1,5-a][1,4]diazepine-1-carboxamide] |  | − | + |  |
| C=C(c1ccccc1)c1nc(C(=O)N[C@H](C(=O)NC)C(C)(C)C)c2n1CCCN(C)C2 [Compound 455, (S)-N-(3,3-dimethyl-1-(methylamino)-1-oxobutan-2-yl)-8-methyl-3-(1-phenylvinyl)-6,7,8,9-tetrahydro-5H-imidazo[1,5-a][1,4]diazepine-1-carboxamide] | > 10 | + |  |  |
| CNC(=O)[C@@H](NC(=O)c1nc(C2=CCCC2)n2c1CN(C)CCC2)C(C)(C)C [Compound 456] | > 10 | + |  |  |
| CNC(=O)[C@@H](NC(=O)c1nc(C2=CCCCCC2)n2c1CN(C)CCC2)C(C)(C)C [Compound 457, (S,E)-3-cycloheptenyl-N-(3,3-dimethyl-1-(methylamino)-1-oxobutan-2-yl)-8-methyl-6,7,8,9-tetrahydro-5H-imidazo[1,5-a][1,4]diazepine-1-carboxamide] | > 10 | − |  |  |
| CNC(=O)[C@@H](NC(=O)c1nc(/C=C/Cc2ccccc2)n2c1CN(C)CCC2)C(C)(C)C [Compound 458, (S,E)-N-(3,3-dimethyl-1-(methylamino)-1-oxobutan-2-yl)-8-methyl-3-(3-phenylprop-1-enyl)-6,7,8,9-tetrahydro-5H-imidazo[1,5-a][1,4]diazepine-1-carboxamide] |  | − | + |  |
| CNC(=O)[C@@H](NC(=O)c1nc(Cc2ccccc2)n2c1CN(C)CCC2)C(C)(C)C [Compound 459, (S)-3-benzyl-N-(3,3-dimethyl-1-(methylamino)-1-oxobutan-2-yl)-8-methyl-6,7,8,9-tetrahydro-5H-imidazo[1,5-a][1,4]diazepine-1-carboxamide] | > 10 | + |  |  |
| CNC(=O)[C@@H](NC(=O)c1nc(C2=CCNCC2)n2c1CN(C)CCC2)C(C)(C)C [Compound 460, (S)-N-(3,3-dimethyl-1-(methylamino)-1-oxobutan-2-yl)-8-methyl-3-(1,2,3,6-tetrahydropyridin-4-yl)-6,7,8,9-tetrahydro-5H-imidazo[1,5-a][1,4]diazepine-1-carboxamide] |  | + | + |  |
| CCS(=O)(=O)N1CCCn2c(-c3ccccc3)nc(C(=O)N[C@H](C(=O)NC)C(C)(C)C)c2C1 [Compound 461, (S)-N-(3,3-dimethyl-1-(methylamino)-1-oxobutan-2-yl)-8-(ethylsulfonyl)-3-phenyl-6,7,8,9-tetrahydro-5H-imidazo[1,5-a][1,4]diazepine-1-carboxamide] | > 10 | − |  |  |
| CNC(=O)[C@@H](NC(=O)c1nc(-c2ccccc2)n2c1CN(C(=O)c1ccccc1)CCC2)C(C)(C)C [Compound 462, (S)-8-benzoyl-N-(3,3-dimethyl-1-(methylamino)-1-oxobutan-2-yl)-3-phenyl-6,7,8,9-tetrahydro-5H-imidazo[1,5-a][1,4]diazepine-1-carboxamide] | > 10 |  |  | > 10 |
| CNC(=O)[C@@H](NC(=O)c1nc(-c2ccccc2)n2c1CN(C(C)=O)CCC2)C(C)(C)C [Compound 463, (S)-8-acetyl-N-(3,3-dimethyl-1-(methylamino)-1-oxobutan-2-yl)-3-phenyl-6,7,8,9-tetrahydro-5H-imidazo[1,5-a][1,4]diazepine-1-carboxamide] | > 10 | + |  |  |
| CNC(=O)[C@@H](NC(=O)c1nc(-c2ccccc2)n2c1CN(S(=O)(=O)c1ccc(F)cc1)CCC2)C(C)(C)C [Compound 464, (S)-N-(3,3-dimethyl-1-(methylamino)-1-oxobutan-2-yl)-8-(4-fluorophenylsulfonyl)-3-phenyl-6,7,8,9-tetrahydro-5H-imidazo[1,5-a][1,4]diazepine-1-carboxamide] | > 10 | − |  |  |
| COC(=O)[C@@H](NC(=O)c1nc(-c2ccccc2)n2c1CNCCC2)C(C)(C)C [Compound 465, (S)-methyl 3,3-dimethyl-2-(3-phenyl-6,7,8,9-tetrahydro-5H-imidazo[1,5-a][1,4]diazepine-1-carboxamido)butanoate] | > 10 | + |  |  |
| COC(=O)[C@@H](NC(=O)c1nc(-c2ccc(C)cc2F)n2c1CNCCC2)C(C)(C)C [Compound 466] | > 10 | − |  |  |
| COC(=O)[C@@H](NC(=O)c1nc(-c2ccccc2)n2c1CN(C)CCC2)C(C)(C)C [Compound 467, (S)-methyl 3,3-dimethyl-2-(8-methyl-3-phenyl-6,7,8,9-tetrahydro-5H-imidazo[1,5-a][1,4]diazepine-1-carboxamido)butanoate] | > 10 | + |  |  |
